These results are taken from article PMC6801739, “Antitumor Activity of a Novel Tyrosine Kinase Inhibitor AIU2001 Due to Abrogation of the DNA Damage Repair in Non-Small Cell Lung Cancer Cells” (International Journal of Molecular Sciences, 2019).

For orientation: IC50 means the point on the concentration scale where inhibition reaches its midpoint. A high value points to a need for much substance.

Each structure is given as a SMILES string.

For test [1], the target named is T1, ROS (Homo sapiens, UniProt P08922).
T1 construct: purchased Eurofins Pharma Discovery (KinaseProfiler); IC50 values by Reaction Biology Corp
Nature of the test: Kinase profiling at 10 μM (Eurofins). The format is biochemical. The following applies: read-out: Inhibitory activity.

For test [2], the target named is T2, PDGFRα (Homo sapiens, UniProt P16234).
T2 construct: purchased Eurofins Pharma Discovery (KinaseProfiler); IC50 values by Reaction Biology Corp
The test is described as follows: Kinase profiling at 10 μM (Eurofins). It is filed as biochemical. The following applies: read-out: Inhibitory activity.

Test [3] deals with T3, DDR2 (Homo sapiens, UniProt Q16832).
T3 construct: purchased Eurofins Pharma Discovery (KinaseProfiler); IC50 values by Reaction Biology Corp
Nature of the test: Kinase profiling at 10 μM (Eurofins). The format is biochemical. The following applies: read-out: Inhibitory activity.

Test [4] concerns the target T4, ERBB2 (Homo sapiens, UniProt P04626).
T4 construct: purchased Eurofins Pharma Discovery (KinaseProfiler); IC50 values by Reaction Biology Corp
The test is described as follows: Kinase profiling at 10 μM (Eurofins). The format is biochemical. The following applies: read-out: Inhibitory activity.

The target in test [5] is T5, MAPK2 (Homo sapiens, UniProt P28482).
T5 construct: purchased Eurofins Pharma Discovery (KinaseProfiler); IC50 values by Reaction Biology Corp
The test is described as follows: Kinase profiling at 10 μM (Eurofins). The following applies: read-out: Inhibitory activity. It is filed as biochemical.

Test [6] addresses T6, AMPKα1 (Homo sapiens, UniProt Q13131).
T6 construct: purchased Eurofins Pharma Discovery (KinaseProfiler); IC50 values by Reaction Biology Corp
The test is described as follows: Kinase profiling at 10 μM (Eurofins). It is filed as biochemical. The following applies: read-out: Inhibitory activity.

Test [7] concerns the target T7, c-KIT (D816H) (Homo sapiens, UniProt P10721, D816H).
T7 construct: purchased Eurofins Pharma Discovery (KinaseProfiler); IC50 values by Reaction Biology Corp
Nature of the test: Kinase profiling at 10 μM (Eurofins). The format is biochemical. The following applies: read-out: Inhibitory activity.

For test [8], the target named is T8, c-KIT (Homo sapiens, UniProt P10721).
T8 construct: purchased Eurofins Pharma Discovery (KinaseProfiler); IC50 values by Reaction Biology Corp
The test is described as follows: Kinase profiling at 10 μM (Eurofins). It is filed as biochemical. The following applies: read-out: Inhibitory activity.

Test [9] has as its target T9, HIPK2 (Homo sapiens, UniProt Q9H2X6).
T9 construct: purchased Eurofins Pharma Discovery (KinaseProfiler); IC50 values by Reaction Biology Corp
Nature of the test: Kinase profiling at 10 μM (Eurofins). It is filed as biochemical. The following applies: read-out: Inhibitory activity.

Test [10] concerns the target T10, FLT3 (Homo sapiens, UniProt P36888).
T10 construct: purchased Eurofins Pharma Discovery (KinaseProfiler); IC50 values by Reaction Biology Corp
The test is described as follows: In vitro kinase assay, IC50 (Reaction Biology Corp.). The format is biochemical.

The subject of test [11] is HCT116 p53-/- cells. Nature of the test: MTT cell viability assay. The following applies: 5 days. The format is cell-based, human. On the procedure: (§1) Cell viability was assessed using the MTT colorimetric assay. Cells (1 × 10^3 cells/well) were seeded into 96-well plates and treated with the various concentrations of each compound or combination of two compounds. After five days of treatment, 10 μL MTT (0.5 mg/mL) was added, and further incubated for 3 h. After removal of the supernatant, the resultant pellet was dissolved in DMSO. The absorbance of the resultant formazan was measured at 540 nm using a plate reader (Multiskan EX; ThermoLabsystems, Waltham, MA, USA).
(§2) Supplementary Figure 1. AIU2001 inhibited the proliferation of various cancer cells. (A and B)
(§3) Human AML cells (Molm-13 and MV4-11; A) and human colorectal cancer (CRC) cells
(§4) (HCT116/p53+/+ and HCT116/p53-/-; B) were treated with AIU2001 at the indicated concentrations for
(§5) 5 days and viable cells were evaluated using the CCK-8 assay for AML cells and the MTT assay for
(§6) CRC cells. *p < 0.05, **p < 0.01, ***p < 0.001 versus respective vehicle controls.
(§7) (also on this page, place not known: ca ncer fo r 02468 Cell viability (%) 0 1 Cell viability (%) *** *** ***)
A general note: Tetrazolium dyes change colour on reduction, which living cells bring about.

Test [12] concerns HCT116 p53+/+ cells. Nature of the test: MTT cell viability assay. The format is cell-based, human. The following applies: 5 days. As for the experimental part: as §1, §2, §3, §4, §5, §6, §7
For test [13], the system named is A549 cells. The test is described as follows: qPCR of DNA damage repair genes and STAT5 mRNA. The format is cell-based, human. The following applies: 24 h. The source says:
(§8) RNA was extracted using TRIzol® RNA isolation reagent (ThermoFisher Scientific). RNA was reverse-transcribed into cDNA using the M-MLV reverse transcriptase (Enzynomics, Daejeon, Korea) and RNase inhibitor (Promega, Madison, WI, USA). The sequence of the primers targeting human BRCA1, BRCA2, RAD51, BARD1, XRCC6, and XRCC5 are as follows: BRCA1 sense 5′-[…]-3′, BRCA1 antisense 5′-[…]-3′, BRCA2 sense 5′-[…]-3′, BRCA2 antisense 5′-[…]-3′, RAD51 sense 5′-[…]-3′, RAD51 antisense 5′-[…]-3′, BARD1 sense 5′-[…]-3′, BARD1 antisense 5′-[…]-3′, XRCC6 sense 5′-[…]-3′, XRCC6 antisense 5′-[…]-3′, XRCC5 sense 5′-[…]-3′,and XRCC5 antisense 5′-[…]-3′. β-actin was used as a housekeeping gene for normalization. The cDNA was quantified using real-time PCR with SYBR Green/fluorescein qPCR master mix (ThermoScientific, Carlsbad, CA, USA) on a Lightcycler 96 system (Roche Diagnostics, Mannheim, Germany) according to the manufacturer’s protocol.
On the technique in general: Real-time PCR tracks product formation cycle by cycle.

Test [14] deals with H1299 cells. The test is described as follows: qPCR of DNA damage repair genes and STAT5 mRNA. It is filed as cell-based, human. The following applies: 24 h.
Text: as §8

The target of test [15] is T11, PDK1 (Homo sapiens, UniProt O15530).
T11 construct: purchased Eurofins Pharma Discovery (KinaseProfiler); IC50 values by Reaction Biology Corp
Nature of the test: Kinase profiling at 10 μM (Eurofins). It is filed as biochemical. The following applies: read-out: Inhibitory activity.

In test [16] the target is T12, TAK1 (Homo sapiens, UniProt O43318).
T12 construct: purchased Eurofins Pharma Discovery (KinaseProfiler); IC50 values by Reaction Biology Corp
The test is described as follows: Kinase profiling at 10 μM (Eurofins). It is filed as biochemical. The following applies: read-out: Inhibitory activity.

For test [17], the target named is T13, Met (Homo sapiens, UniProt P08581).
T13 construct: purchased Eurofins Pharma Discovery (KinaseProfiler); IC50 values by Reaction Biology Corp
The test is described as follows: Kinase profiling at 10 μM (Eurofins). The format is biochemical. The following applies: read-out: Inhibitory activity.

For test [18], the system named is H1299 cells. The test is described as follows: Immunoblot of phospho-STAT5. The format is cell-based, human. On the procedure: Cell lysates were prepared by extracting proteins with TNN buffer (40 mM Tris-Cl pH 8.0, 0.2% NP-40, 120 mM NaCl) or radioimmunoprecipitation assay (RIPA) lysis buffer (Millipore, Billerica MA, USA) supplemented with a protease inhibitor cocktail (Thermo Fisher Scientific, Rockford, IL, USA). Equal amounts of proteins were separated using SDS-PAGE on 8–13% gels, and transferred to nitrocellulose membranes (Bio-Rad, Hercules, CA, USA). The membranes were blocked with 5% skim milk in Tris-buffered saline-Tween 20 (TBST) (150 mM NaCl, 10 mM Tris, 0.2% Tween20), followed by overnight incubation with primary antibodies at 4 °C. The blots were developed using peroxidase-conjugated secondary antibody and the immunoreactive proteins were visualized using enhanced chemiluminescence (ECL) reagents, according to the manufacturer’s recommendations (Amersham, GE Healthcare, Buckingamshire, UK). The protein bands were visualized using a digital imaging system (ImageQuant LAS 4000 mini; GE Healthcare, UK). The protein levels were analyzed using Image J software (National Institutes of Health, Bethesda, MD, USA). Experiments were repeated at least thrice.
(Immunoblotting shows a protein as a band on a membrane.)

Test [19] relates to A549 cells. Nature of the test: Clonogenic survival assay with γ-radiation. The format is cell-based, human. On the procedure:
(§9) Cells were seeded on 60-mm culture dishes at various densities and then treated with DMSO or 2 μM AIU2001. After 2 h, the cells were treated with the indicated doses of ^137Cs γ-radiation. After 10 days, the colonies were fixed and stained with 1.5% methylene blue (Sigma Aldrich) in methanol solution. Colonies containing > 50 cells were counted. The dose enhancement ratio (DER) was calculated as the dose (Gy) of radiation that yielded a surviving fraction of 0.1 for DMSO-treated cells divided by that dose for AIU2001-treated cells. The experiment was performed in triplicate.

Test [20] concerns H1299 cells. Nature of the test: Clonogenic survival assay with γ-radiation. It is filed as cell-based, human. As for the experimental part: as §9

T12 sequence (O43318 1-303 limits assumed): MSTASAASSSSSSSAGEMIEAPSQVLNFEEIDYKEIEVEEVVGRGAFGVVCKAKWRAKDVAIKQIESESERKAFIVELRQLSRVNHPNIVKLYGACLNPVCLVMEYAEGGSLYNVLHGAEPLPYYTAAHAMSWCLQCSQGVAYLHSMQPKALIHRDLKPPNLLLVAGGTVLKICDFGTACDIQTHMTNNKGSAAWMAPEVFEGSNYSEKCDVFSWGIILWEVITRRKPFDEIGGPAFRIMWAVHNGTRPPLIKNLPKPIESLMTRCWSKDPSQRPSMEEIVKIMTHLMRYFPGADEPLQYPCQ
T2 sequence (P16234 24-1089): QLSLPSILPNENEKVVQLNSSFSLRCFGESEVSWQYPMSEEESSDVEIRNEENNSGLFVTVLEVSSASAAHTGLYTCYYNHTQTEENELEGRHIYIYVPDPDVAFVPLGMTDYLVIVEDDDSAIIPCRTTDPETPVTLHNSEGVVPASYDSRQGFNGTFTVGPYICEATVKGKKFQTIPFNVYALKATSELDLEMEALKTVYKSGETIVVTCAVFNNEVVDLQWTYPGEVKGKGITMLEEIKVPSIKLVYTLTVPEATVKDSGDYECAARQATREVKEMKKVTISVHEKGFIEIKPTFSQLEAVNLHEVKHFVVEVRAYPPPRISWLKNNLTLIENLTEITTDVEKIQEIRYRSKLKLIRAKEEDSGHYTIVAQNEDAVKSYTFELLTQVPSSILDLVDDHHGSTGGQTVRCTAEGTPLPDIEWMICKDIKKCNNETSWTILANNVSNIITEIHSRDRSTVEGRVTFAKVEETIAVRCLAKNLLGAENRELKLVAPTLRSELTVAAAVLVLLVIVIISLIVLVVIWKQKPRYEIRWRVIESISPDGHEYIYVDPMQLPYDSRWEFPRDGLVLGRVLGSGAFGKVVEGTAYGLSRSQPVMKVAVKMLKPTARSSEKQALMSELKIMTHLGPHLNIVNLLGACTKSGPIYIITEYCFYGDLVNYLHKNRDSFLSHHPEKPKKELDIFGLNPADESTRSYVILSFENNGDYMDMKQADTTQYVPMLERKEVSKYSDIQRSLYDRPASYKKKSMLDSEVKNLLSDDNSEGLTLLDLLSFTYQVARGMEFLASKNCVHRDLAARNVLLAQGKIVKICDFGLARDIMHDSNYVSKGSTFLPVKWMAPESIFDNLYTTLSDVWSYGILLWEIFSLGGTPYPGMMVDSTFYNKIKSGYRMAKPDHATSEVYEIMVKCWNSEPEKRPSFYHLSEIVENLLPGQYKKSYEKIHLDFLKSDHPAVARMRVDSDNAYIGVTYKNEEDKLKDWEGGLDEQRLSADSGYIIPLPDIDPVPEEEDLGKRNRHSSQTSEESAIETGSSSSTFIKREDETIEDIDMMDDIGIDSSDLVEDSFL
T9 sequence (Q9H2X6 whole entry): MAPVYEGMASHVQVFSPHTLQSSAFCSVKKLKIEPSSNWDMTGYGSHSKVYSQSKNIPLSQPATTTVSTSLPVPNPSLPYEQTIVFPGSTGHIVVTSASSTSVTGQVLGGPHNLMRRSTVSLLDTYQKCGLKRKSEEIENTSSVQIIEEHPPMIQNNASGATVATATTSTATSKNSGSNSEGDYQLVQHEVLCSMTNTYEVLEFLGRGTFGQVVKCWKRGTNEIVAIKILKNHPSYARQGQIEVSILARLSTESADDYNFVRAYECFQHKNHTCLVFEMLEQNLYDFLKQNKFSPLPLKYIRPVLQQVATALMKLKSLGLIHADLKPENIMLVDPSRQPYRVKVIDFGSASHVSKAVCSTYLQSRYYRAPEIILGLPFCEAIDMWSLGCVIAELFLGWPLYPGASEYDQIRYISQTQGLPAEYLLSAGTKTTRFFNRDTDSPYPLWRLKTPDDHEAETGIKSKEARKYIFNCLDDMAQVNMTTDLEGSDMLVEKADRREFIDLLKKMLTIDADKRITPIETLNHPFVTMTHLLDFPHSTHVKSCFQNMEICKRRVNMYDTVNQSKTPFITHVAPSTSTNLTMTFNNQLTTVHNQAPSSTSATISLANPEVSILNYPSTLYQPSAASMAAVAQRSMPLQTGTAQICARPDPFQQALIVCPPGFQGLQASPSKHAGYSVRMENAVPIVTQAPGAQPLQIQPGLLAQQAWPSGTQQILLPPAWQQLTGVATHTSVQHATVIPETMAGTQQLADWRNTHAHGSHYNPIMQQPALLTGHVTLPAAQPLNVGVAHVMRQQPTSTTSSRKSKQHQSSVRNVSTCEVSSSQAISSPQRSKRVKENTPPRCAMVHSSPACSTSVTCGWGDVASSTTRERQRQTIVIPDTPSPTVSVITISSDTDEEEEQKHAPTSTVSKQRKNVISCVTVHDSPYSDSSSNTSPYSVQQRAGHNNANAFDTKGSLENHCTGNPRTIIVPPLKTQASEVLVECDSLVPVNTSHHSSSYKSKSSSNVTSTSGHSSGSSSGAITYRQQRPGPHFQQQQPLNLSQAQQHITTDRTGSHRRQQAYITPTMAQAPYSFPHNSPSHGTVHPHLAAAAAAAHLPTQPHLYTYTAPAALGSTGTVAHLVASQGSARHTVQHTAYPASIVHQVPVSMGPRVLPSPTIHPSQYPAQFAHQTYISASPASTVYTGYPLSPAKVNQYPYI
T6 sequence (Q13131 whole entry): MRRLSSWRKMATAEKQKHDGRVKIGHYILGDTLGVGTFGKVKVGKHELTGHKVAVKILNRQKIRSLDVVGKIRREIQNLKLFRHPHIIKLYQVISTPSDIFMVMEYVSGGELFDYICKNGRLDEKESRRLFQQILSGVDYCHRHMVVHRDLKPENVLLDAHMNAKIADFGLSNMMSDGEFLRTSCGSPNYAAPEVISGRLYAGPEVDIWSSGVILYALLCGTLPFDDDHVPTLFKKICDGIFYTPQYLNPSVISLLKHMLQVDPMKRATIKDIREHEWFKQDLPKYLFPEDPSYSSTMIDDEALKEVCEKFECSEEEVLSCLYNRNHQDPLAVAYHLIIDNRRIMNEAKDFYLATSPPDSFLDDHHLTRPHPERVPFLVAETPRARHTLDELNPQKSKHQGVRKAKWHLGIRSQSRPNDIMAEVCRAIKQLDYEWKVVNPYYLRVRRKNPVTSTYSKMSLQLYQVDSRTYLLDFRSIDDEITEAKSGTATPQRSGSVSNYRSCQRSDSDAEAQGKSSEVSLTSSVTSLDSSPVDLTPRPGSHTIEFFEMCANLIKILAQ
T6 sequence (Q9Y478 whole entry partner): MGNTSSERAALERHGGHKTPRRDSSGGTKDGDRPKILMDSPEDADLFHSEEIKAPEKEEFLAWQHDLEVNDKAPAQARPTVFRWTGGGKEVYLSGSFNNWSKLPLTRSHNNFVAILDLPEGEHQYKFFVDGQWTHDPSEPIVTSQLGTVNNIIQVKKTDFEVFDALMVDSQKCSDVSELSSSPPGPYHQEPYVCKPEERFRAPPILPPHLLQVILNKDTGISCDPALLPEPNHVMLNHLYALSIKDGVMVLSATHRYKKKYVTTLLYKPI
T6 sequence (P54619 whole entry partner): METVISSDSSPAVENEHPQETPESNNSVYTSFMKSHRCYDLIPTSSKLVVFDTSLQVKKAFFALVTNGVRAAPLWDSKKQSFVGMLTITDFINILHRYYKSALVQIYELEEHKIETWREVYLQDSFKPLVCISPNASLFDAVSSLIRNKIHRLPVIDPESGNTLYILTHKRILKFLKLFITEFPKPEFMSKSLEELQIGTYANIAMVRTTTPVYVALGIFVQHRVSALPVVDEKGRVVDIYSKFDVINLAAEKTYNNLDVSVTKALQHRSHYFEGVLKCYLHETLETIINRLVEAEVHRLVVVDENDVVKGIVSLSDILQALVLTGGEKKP
T7 sequence (P10721 26-976 D816H): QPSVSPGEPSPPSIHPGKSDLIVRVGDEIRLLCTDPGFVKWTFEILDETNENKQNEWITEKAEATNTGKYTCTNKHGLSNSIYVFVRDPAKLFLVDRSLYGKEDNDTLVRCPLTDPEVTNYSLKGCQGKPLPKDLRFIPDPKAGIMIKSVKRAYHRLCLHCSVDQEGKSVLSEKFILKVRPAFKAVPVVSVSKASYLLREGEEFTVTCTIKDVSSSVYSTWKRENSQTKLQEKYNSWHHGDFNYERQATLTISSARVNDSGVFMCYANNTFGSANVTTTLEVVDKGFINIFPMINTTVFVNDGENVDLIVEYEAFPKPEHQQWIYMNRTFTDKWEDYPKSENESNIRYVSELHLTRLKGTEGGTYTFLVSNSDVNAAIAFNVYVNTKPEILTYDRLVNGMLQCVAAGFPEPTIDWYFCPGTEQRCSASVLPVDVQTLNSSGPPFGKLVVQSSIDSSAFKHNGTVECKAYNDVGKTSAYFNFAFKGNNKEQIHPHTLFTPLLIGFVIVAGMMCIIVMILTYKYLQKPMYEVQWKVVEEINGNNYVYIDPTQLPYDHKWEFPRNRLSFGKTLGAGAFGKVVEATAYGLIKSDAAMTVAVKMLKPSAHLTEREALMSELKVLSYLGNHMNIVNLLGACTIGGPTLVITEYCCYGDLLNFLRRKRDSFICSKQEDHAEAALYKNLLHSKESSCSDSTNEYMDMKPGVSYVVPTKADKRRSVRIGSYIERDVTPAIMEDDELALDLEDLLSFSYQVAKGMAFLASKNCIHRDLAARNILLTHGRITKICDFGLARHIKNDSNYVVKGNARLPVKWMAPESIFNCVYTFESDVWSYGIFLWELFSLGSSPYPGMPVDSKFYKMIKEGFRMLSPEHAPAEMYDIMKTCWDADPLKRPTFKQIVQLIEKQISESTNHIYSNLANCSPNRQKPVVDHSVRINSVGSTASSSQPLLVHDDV
T5 sequence (P28482 whole entry): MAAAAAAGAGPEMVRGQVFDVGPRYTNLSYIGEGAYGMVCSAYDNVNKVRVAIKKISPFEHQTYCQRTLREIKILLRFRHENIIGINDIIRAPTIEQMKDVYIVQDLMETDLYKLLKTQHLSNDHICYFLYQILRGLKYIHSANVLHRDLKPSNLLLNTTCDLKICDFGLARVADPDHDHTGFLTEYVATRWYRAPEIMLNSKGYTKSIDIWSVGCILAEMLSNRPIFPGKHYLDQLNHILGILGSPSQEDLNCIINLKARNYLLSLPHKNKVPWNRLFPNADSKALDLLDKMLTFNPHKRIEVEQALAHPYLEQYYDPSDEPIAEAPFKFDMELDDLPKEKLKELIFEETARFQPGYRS

In the case of `Brc1ccc(-c2cnc(Nc3cccc4ccccc34)o2)cc1` [AIU2001, 5-(4-bromophenyl)-N-(naphthalen-1-yl) oxazol-2-amine], the inhibition at 10 µM turned out to be 2% in [1]; 48% in [2]; 55% in [3]; 0% in test [4]; 19% in [5]; 25% in test [6]. Besides, the inhibition at 10 µM in [7] is 48%; in test [8] it was at least 75%; in test [9], 0%; in test [15] it was 19%; in test [16] it was 15%; in test [17], 1%. 206 nM corresponded to half-maximal inhibition in test [10] (IC50). Moreover, the “Growth inhibition” value in test [11] and in test [12] was “inhibited the growth” in each case. Further, the “Expression level of STAT5 mRNA” value in test [13] and in [14] was “downregulated” throughout. Further, the “mRNA levels of HR (BRCA1, BRCA2, BARD1, RAD51) and NHEJ (XRCC5, XRCC6) genes” value in test [13] and in [14] was “reduced the mRNA levels” each time. Further, the “Phosphorylated STAT5” value in [18] is “inhibited phosphorylated STAT5”. In addition, the “Dose enhancement ratio (DER) at surviving fraction of 0.1 over DMSO-treated cells” value in [19] (2 μM, 2 h before IR, 10 days) is given as 1.33; in [20] (2 μM, 2 h before IR, 10 days), 1.15. The “Radiosensitivity” value in test [19] (clonogenic survival) and in test [20] (clonogenic survival) was “radiosensitized” each time.
